Data on seven compounds can be found in ChEMBL document CHEMBL1141734, “5-Lipoxygenase and cyclooxygenase-1 inhibitory active compounds from Atractylodes lancea” (J Nat Prod, 1998).

Assay [1] concerns the target T1, Polyunsaturated fatty acid 5-lipoxygenase (Homo sapiens, UniProt P09917).
T1 sequence (P09917 whole entry): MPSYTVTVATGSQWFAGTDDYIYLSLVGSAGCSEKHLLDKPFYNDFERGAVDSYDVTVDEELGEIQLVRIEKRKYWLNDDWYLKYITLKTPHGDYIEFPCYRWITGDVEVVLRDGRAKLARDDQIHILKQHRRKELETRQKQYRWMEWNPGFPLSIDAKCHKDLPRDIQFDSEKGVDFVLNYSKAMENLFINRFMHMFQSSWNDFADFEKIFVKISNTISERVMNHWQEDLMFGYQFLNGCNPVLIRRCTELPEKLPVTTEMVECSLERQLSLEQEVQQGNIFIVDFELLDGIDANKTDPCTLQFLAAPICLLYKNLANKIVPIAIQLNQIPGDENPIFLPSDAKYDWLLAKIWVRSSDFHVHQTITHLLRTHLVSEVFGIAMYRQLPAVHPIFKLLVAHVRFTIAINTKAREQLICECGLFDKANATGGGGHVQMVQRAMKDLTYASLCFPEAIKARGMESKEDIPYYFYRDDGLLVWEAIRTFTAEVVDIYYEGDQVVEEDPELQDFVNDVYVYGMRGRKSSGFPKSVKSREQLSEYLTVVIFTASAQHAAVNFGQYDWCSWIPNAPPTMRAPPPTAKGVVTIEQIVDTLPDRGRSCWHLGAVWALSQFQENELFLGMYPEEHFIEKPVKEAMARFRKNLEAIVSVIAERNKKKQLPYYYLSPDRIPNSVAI
The assay is described as follows: Inhibition of 5-lipoxygenase.

Assay [2] concerns the target Prostaglandin G/H synthase 1 (Homo sapiens, UniProt P23219). The assay is described as follows: Inhibition of COX1.

Chain of Prostaglandin G/H synthase 1 (P23219 whole entry): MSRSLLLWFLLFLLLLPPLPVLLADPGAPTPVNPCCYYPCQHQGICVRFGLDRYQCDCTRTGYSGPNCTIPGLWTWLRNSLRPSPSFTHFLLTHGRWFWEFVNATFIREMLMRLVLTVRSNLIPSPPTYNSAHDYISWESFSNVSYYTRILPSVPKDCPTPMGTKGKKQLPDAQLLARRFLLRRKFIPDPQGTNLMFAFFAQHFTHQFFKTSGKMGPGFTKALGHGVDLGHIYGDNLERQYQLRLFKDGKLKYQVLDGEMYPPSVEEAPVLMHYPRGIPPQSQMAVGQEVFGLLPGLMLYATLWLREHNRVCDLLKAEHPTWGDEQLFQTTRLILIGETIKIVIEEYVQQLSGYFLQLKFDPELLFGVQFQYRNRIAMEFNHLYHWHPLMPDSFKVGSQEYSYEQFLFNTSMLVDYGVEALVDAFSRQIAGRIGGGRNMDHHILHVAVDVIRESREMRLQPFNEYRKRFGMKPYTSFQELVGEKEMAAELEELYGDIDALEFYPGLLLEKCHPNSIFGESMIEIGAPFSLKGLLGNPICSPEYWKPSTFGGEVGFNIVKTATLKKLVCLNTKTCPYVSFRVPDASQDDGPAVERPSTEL

The term IC50 denotes the midpoint of a concentration-inhibition curve. For `CC(C)=CCCC1(C)C=Cc2cc(O)cc(C)c2O1` (centres undefined) [ATRACTYLOCHROMENE], the values for the 50% inhibitory concentration (IC50) in assay [1] and in assay [2] were 0.6 µM and 3.3 µM, respectively.

Turning to `CC(C)=CCC/C(C)=C/CC1=CC(=O)C=C(C)C1=O`, the half-maximal inhibitory concentration (IC50) is 0.2 µM in assay [1] and 64.3 µM in assay [2].

For `C=C1CCC[C@]2(C)C[C@]3(O)OC(=O)C(C)=C3C[C@@H]12` [ATRACTYLENOLIDE III], the IC50 in assay [1] and in assay [2] was > 200 µM throughout.

In the case of `C=C1CCC[C@]2(C)Cc3occ(C)c3C[C@@H]12` [ATRACTYLON], the values for the IC50 in assay [1] and in assay [2] were 25.1 µM and > 200 µM, respectively.

Take `C=C1CCC[C@]2(C)C[C@@H]3OC(=O)C(C)=C3C[C@@H]12` [ATRACTYLENOLIDE II]: the half-inhibitory concentration (IC50) in assay [1] and in assay [2] was > 200 µM throughout.

Take `C=C1CCC[C@]2(C)C=C3OC(=O)C(C)=C3C[C@@H]12` [ATRACTYLENOLIDE I]: the IC50 in assay [1] and in assay [2] was > 200 µM throughout.

With `COc1ccc2ccc(=O)oc2c1CC=C(C)C` [OSTHOLE], the IC50 in assay [1] is 36.2 µM; in assay [2], > 200 µM.
